From patent US10729680B2, “5-substituted 2-(morpholin-4-yl)-1,7-naphthyridines” (BAYER PHARMA AKTIENGESELLSCHAFT, priority 2016, dated 2020) come the findings set out here.

The target in test [1] is full-length human ATR protein (ATR/ATRIP) (Homo sapiens (Human), UniProt Q13535). Description: Binding Assay ATR (TR-FRET, tracer A displacement). Particulars: displacement of fluorescent tracer A from GST-ATR/ATRIP. An excerpt:
To determine of binding activity of the test compounds, full-length human ATR protein was expressed and purified together with ATRIP as described above. Furthermore, a fluorescently labelled compound (tracer A as described above) was used as a tracer molecule. Detection of the binding event of the tracer was achieved by time-resolved fluorescence energy transfer (TR-FRET). We used an anti-GST-Terbium antibody (CisBio) that binds to the GST-tag at the N-terminus of ATR-kinase. Excitation of Terbium with 337 nm light results in emission of fluorescent light with 545 nm. In case a tetrameric complex has formed (antiGST-Tb+GST-ATR+Strp2-ATRIP+tracer), part of the energy will be transferred from the Terbium to the fluorophore that itself emits light of 570 nm. Displacement of the fluorescent tracer by a test compound leads to a reduction of the TR-FRET-signal.
For the assay 50 nl of a 100-fold concentrated solution of the test compound in DMSO was pipetted into a black low volume 384 well microtiter plate (MTP, Greiner Bio-One, Frickenhausen, Germany). To prepare the ATR-working solution, ATR/ATRIP stock solution was diluted in assay buffer [50 mM HEPES (pH 7.0), 10 mM MgCl2, 1 mM DTT, 0.01% (w/v) Igepal, 0.01% (w/v) BSA] to 4.2 nM protein concentration (concentration may vary from lot to lot of protein preparation). AntiGST-Tb antibody was diluted to 4.2 nM. The ATR-working solution was incubated for 30 min at 22° C. prior to dispensing to pre-form the complex of antiGST-Tb+GST-ATR+ATRIP. Then, 3 μl of the ATR-working solution were added to the test compound and the mixture was incubated for 10 min at 22° C. to allow pre-binding of the test compounds to ATR/ATRIP. Then, 2 μl of a 100 nM solution of tracer A in assay buffer were added to the ATR-working solution. The resulting mixture was incubated for 30 min at 22° C. The measurement of the TR-FRET signal was performed in a standard HTRF-compatible MTP reader instrument (e.g. BMG Pherastar) by recording the fluorescence emissions at 545 nm and 570 nm after excitation at 337-350 nm. The ratio between emission at 570 nm divided by emission at 545 nm was calculated to give the well ratio. The experimental data (well ratios) were normalised by the following way: positive control contained ATR-working solution plus tracer A solution (=0% inhibition), the negative control contained all components except GST-ATR/ATRIP (=100% inhibition). Usually the compounds were tested on the same MTP in 11 different concentrations in the range of 20 μM to 0.1 nM (20 μM, 5.9 μM, 1.7 μM, 0.51 μM, 0.15 μM, 44 nM, 13 nM, 3.8 nM, 1.1 nM, 0.33 nM and 0.1 nM). The dilution series were prepared separately before the assay on the level of the 100 fold concentrated solutions in DMSO by serial 1:3.4 dilutions in duplicate values for each concentration. IC50 values were calculated by a 4 parameter fit using standard software (GraphPad prism or equivalent).
In general terms: TR-FRET usually uses a lanthanide donor and a delayed reading to cut background.

Another test deals with HeLa cells. In words: Proliferation assay (HeLa, crystal violet). It counts as cell-based. To be noted: Homo sapiens, 96 h, 4 days incubation, crystal violet staining, read-out: Inhibition of HeLa cell proliferation. Here is the method:
Human tumour cells were originally obtained from the American Type Culture Collection (ATCC), the Deutsche Sammlung von Mikroorganismen und Zellkulturen (DSMZ, German Collection of Microorganisms and Cell Cultures) or Epo GmbH, Berlin.
Adherently growing cells (HeLa, HeLa-MaTu-ADR, HT-144, Lovo, HT-29, NCI-H460, DU145, Caco2, B16F10) were plated out in a density of 1500-4000 cells/measurement point, depending on the rate of growth of the cell line, in a 96-well multititre plate in 200 μl of growth medium (DMEM/HAMS F12, 2 mM L-glutamine, 10% foetal calf serum). After 24 hours, the cells of one plate (zero plate) were dyed with crystal violet (see below), whereas the medium of the other plates was replaced with fresh culture medium (200 μl) to which the test substances were added in various concentrations (0 μM, and also in the range of 0.001-10 μM; the final concentration of the solvent dimethyl sulphoxide was 0.1 or 0.5%). The cells were incubated for 4 days in the presence of the test substances. Cell proliferation was determined by staining the cells with crystal violet: the cells were fixed at room temperature for 15 min by adding 20 μl/measurement point of an 11% strength glutaraldehyde solution. After washing the fixed cells three times with water, the plates were dried at room temperature. The cells were stained by adding 100 μl/measurement point of a 0.1% strength crystal violet solution (pH adjusted to pH 3 by adding acetic acid). After washing the cells three times with water, the plates were dried at room temperature. The dye was dissolved by adding 100 μl/measurement point of a 10% strength acetic acid solution. Absorbance was determined photometrically at a wavelength of 595 nm. The percentage change in cell growth was calculated by normalizing the measured values to the absorbance values of the zero plate (=0%) and the absorbance of the untreated (0 μM) cells (=100%). The IC50 values were determined by means of a four parameter fit.
Inhibition of proliferation of HeLa cells by compounds according to the present invention, determined as described above. All IC50 (inhibitory concentration at 50% of maximal effect) values are indicated in M, “n.t.” means that the compounds have not been tested in the respective assay.

full-length human ATR protein (ATR/ATRIP), sequence (Q13535 other isoform, or with tags, fused parts or gaps): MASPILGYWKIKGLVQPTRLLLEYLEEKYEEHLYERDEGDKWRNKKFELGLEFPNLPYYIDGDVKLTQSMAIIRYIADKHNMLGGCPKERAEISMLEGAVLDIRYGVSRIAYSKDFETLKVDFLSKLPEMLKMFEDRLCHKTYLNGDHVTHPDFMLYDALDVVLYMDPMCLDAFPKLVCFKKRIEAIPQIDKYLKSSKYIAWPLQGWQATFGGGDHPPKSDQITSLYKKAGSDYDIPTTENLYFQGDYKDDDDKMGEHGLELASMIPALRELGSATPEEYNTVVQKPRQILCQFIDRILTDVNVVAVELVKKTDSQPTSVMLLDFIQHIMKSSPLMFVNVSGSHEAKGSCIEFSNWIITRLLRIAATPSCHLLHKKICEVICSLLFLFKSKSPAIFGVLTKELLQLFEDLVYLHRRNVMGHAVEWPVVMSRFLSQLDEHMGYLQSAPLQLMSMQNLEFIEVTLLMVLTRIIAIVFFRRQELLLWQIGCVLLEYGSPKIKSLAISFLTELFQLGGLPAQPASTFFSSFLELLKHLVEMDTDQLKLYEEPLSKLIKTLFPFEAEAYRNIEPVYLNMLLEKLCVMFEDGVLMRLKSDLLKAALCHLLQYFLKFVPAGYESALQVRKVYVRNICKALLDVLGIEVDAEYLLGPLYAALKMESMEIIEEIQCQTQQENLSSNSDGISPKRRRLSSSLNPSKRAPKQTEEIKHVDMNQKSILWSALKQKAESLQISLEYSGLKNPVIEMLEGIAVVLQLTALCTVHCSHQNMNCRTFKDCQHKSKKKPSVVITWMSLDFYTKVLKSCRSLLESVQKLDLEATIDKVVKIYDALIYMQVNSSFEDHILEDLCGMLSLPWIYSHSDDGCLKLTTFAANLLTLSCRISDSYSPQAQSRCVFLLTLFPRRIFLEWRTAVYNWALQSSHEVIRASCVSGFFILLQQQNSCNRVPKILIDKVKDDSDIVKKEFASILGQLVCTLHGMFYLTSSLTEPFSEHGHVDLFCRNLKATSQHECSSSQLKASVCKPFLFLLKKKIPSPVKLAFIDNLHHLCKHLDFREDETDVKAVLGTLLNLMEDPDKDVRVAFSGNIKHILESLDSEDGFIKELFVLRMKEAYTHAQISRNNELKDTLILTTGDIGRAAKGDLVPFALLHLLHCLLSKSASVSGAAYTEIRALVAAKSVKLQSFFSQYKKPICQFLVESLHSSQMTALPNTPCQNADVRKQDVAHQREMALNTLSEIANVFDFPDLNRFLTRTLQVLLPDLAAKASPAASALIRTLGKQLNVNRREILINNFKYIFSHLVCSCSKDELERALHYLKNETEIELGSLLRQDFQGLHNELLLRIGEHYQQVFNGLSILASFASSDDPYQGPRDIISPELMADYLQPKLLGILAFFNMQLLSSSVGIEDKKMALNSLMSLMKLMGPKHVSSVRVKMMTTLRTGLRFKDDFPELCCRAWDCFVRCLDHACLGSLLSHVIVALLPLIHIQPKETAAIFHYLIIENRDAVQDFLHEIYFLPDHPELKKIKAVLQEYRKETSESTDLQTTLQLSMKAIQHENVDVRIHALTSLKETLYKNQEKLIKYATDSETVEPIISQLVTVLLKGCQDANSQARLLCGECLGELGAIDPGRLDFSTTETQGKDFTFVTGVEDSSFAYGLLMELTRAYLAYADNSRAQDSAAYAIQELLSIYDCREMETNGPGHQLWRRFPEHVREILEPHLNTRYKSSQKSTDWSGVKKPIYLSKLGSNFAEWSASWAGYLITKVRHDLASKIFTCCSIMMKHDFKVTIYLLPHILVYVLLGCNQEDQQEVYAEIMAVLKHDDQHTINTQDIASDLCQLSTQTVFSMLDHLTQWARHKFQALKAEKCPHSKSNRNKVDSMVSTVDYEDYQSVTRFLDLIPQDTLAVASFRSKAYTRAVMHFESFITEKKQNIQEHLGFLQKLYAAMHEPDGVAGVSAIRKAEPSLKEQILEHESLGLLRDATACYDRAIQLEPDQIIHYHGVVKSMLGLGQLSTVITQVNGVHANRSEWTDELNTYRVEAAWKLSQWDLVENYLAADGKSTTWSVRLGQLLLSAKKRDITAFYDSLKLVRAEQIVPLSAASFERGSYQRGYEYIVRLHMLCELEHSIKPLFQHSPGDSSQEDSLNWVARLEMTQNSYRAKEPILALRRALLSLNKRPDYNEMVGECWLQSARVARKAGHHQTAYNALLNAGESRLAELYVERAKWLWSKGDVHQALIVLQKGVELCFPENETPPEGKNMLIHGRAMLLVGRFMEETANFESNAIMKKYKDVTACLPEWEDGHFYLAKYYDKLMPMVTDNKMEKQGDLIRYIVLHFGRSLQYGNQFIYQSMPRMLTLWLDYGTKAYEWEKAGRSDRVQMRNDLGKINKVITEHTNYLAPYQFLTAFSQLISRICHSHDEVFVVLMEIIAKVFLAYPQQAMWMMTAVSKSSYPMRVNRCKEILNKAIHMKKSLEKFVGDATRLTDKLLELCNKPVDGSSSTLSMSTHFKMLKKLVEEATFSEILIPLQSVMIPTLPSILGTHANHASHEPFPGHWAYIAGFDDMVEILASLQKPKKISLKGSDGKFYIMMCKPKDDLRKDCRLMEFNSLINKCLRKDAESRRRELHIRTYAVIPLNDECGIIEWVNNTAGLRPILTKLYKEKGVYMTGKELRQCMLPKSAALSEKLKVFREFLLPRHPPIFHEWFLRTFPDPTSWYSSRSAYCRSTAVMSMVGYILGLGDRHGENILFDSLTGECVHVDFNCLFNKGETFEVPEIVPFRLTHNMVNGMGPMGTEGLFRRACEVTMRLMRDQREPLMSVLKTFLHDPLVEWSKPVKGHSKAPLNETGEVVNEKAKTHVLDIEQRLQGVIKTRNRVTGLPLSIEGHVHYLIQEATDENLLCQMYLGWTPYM
full-length human ATR protein (ATR/ATRIP), sequence (Q8WXE1 other isoform, or with tags, fused parts or gaps partner): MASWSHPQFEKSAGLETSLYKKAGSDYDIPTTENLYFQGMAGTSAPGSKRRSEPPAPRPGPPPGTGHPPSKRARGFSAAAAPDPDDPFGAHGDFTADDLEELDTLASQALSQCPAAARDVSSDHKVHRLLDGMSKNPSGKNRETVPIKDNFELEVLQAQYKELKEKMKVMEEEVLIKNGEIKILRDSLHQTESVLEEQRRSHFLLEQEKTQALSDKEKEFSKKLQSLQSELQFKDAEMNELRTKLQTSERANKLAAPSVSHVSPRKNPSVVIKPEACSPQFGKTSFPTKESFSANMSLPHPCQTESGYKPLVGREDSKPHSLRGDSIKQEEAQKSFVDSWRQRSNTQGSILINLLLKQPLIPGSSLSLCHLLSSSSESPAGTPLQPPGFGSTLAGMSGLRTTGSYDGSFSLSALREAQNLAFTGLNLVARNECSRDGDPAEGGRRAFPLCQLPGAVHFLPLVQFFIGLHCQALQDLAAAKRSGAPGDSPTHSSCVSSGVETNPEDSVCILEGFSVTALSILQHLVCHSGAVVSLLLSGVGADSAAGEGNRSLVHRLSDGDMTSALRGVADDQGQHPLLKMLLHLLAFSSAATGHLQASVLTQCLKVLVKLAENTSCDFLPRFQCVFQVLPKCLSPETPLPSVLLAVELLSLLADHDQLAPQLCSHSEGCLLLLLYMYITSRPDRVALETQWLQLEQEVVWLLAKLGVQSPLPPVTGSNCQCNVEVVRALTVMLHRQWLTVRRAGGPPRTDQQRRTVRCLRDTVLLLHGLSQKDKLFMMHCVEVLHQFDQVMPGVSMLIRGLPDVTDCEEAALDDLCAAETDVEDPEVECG

With `Cc1cnc(-c2ccn[nH]2)c2nc(N3CCOC[C@H]3C)cc(-c3cccnc3F)c12` [Example 3, 4-(2-fluoropyridin-3-yl)-5-methyl-2-[(3R)-3-methylmorpholin-4-yl]-8-(1H-pyrazol-5-yl)-1,7-naphthyridine], the IC50 in test [1] stood at 8.13 nM; with HeLa cells, 154 nM.
In the same order, the values of `Cc1nc(S(C)(=O)=O)ccc1-c1cc(N2CCOC[C@H]2C)nc2c(-c3ccn[nH]3)ncc(C)c12` [Example 4, 5-methyl-4-[2-methyl-6-(methylsulfonyl)pyridin-3-yl]-2-[(3R)-3-methylmorpholin-4-yl]-8-(1H-pyrazol-5-yl)-1,7-naphthyridine] are 37.3 nM and 333 nM.
Turning to `Cc1cnc(-c2ccn[nH]2)c2nc(N3CCOC[C@H]3C)cc(-c3cnc(Cl)n3C)c12` [Example 5, 4-(2-chloro-1-methyl-1H-imidazol-5-yl)-5-methyl-2-[(3R)-3-methylmorpholin-4-yl]-8-(1H-pyrazol-5-yl)-1,7-naphthyridine], the IC50 in test [1] amounted to 5.07 nM; with HeLa cells, 85.1 nM.
Taken in the same sequence, the figures for `Cc1cnc(-c2ccn[nH]2)c2nc(N3CCOC[C@H]3C)cc(-c3ccc(N4CCNCC4)cc3F)c12` [Example 6, 4-[2-fluoro-4-(piperazin-1-yl)phenyl]-5-methyl-2-[(3R)-3-methylmorpholin-4-yl]-8-(1H-pyrazol-5-yl)-1,7-naphthyridine] were 14.2 nM and 296 nM.
In the same order, the values of `Cc1cnc(-c2ccn[nH]2)c2nc(N3CCOC[C@H]3C)cc(-c3cccc(F)c3F)c12` [Example 7, 4-(2,3-difluorophenyl)-5-methyl-2-[(3R)-3-methylmorpholin-4-yl]-8-(1H-pyrazol-5-yl)-1,7-naphthyridine] are 8.27 nM and 499 nM.
Taken in the same sequence, the figures for `Cc1cnc(-c2ccn[nH]2)c2nc(N3CCOC[C@H]3C)cc(N=S3(=O)CCCC3)c12` [Example 8, N-5-methyl-2-[(3R)-3-methylmorpholin-4-yl]-8-(1H-pyrazol-5-yl)-1,7-naphthyridin-4-yltetrahydro-1H-1λ^4-thiophen-1-imine 1-oxide] were 35.5 nM and 473 nM.
In the case of `CCS(=O)(CC)=Nc1cc(N2CCOC[C@H]2C)nc2c(-c3ccn[nH]3)ncc(C)c12` [Example 9, 4-[diethyl(oxido)-λ^6-sulfanylidene]amino-5-methyl-2-[(3R)-3-methylmorpholin-4-yl]-8-(1H-pyrazol-5-yl)-1,7-naphthyridine], the IC50 in test [1] stood at 14.1 nM; with HeLa cells, 117 nM.
In the same order, the values of `Cc1cnc(-c2ccn[nH]2)c2nc(N3CCOC[C@H]3C)cc(N3CCOCC3)c12` [Example 10, 5-methyl-2-[(3R)-3-methylmorpholin-4-yl]-4-(morpholin-4-yl)-8-(1H-pyrazol-5-yl)-1,7-naphthyridine] are 8.91 nM and 109 nM.
In the same order, the values of `Cc1cnc(-c2ccn[nH]2)c2nc(N3CCOC[C@H]3C)cc(N3CCC(CO)CC3)c12` [Example 11, (1-{5-methyl-2-[(3R)-3-methylmorpholin-4-yl]-8-(1H-pyrazol-5-yl)-1,7-naphthyridin-4-yl}piperidin-4-yl)methanol] are 3.8 nM and 33.2 nM.
Taken in the same sequence, the figures for `Cc1cnc(-c2ccn[nH]2)c2nc(N3CCOC[C@H]3C)cc(N3CCN(S(C)(=O)=O)CC3)c12` [Example 12, 5-methyl-2-[(3R)-3-methylmorpholin-4-yl]-4-[4-(methylsulfonyl)piperazin-1-yl]-8-(1H-pyrazol-5-yl)-1,7-naphthyridine] were 5.49 nM and 440 nM.
In the case of `Cc1cnc(-c2ccn[nH]2)c2nc(N3CCOC[C@H]3C)cc(N(C)CC(C)(C)C)c12` [Example 13, N-(2,2-dimethylpropyl)-N,5-dimethyl-2-[(3R)-3-methylmorpholin-4-yl]-8-(1H-pyrazol-5-yl)-1,7-naphthyridin-4-amine], the results for the IC50 (in test [1]; in the test with HeLa cells) were 4.93 nM and 745 nM, respectively.
Taken in the same sequence, the figures for `COC(=O)c1cc(N2CCOC[C@H]2C)nc2c(-c3ccn[nH]3)ncc(C)c12` [Example 14, methyl 5-methyl-2-[(3R)-3-methylmorpholin-4-yl]-8-(1H-pyrazol-5-yl)-1,7-naphthyridine-4-carboxylate] were 53 nM and 440 nM.
In the same order, the values of `Cc1cnc(-c2ccn[nH]2)c2nc(N3CCOC[C@H]3C)cc(-c3cncn3C)c12` [Example 15, 5-methyl-4-(1-methyl-1H-imidazol-5-yl)-2-[(3R)-3-methylmorpholin-4-yl]-8-(1H-pyrazol-5-yl)-1,7-naphthyridine] are 5.86 nM and 145 nM.
In the same order, the values of `Cc1ncc(-c2cc(N3CCOC[C@H]3C)nc3c(-c4ccn[nH]4)ncc(C)c23)s1` [Example 16, 5-methyl-2-[(3R)-3-methylmorpholin-4-yl]-4-(2-methyl-1,3-thiazol-5-yl)-8-(1H-pyrazol-5-yl)-1,7-naphthyridine] are 14.2 nM and 33.9 nM.
In the case of `CCOP(C)(=O)c1cc(N2CCOC[C@H]2C)nc2c(-c3ccn[nH]3)ncc(C)c12` (stereo partly drawn) [Example 17, ethyl methyl{5-methyl-2-[(3R)-3-methylmorpholin-4-yl]-8-(1H-pyrazol-5-yl)-1,7-naphthyridin-4-yl}phosphinate], the IC50 in test [1] is 42.2 nM; in the test on HeLa cells, 112 nM.
